Type in all cases: biochemical
One assay has as its target T1, K-Ras G12V (Homo sapiens, UniProt P01116, G12V).
T1 construct: made in house; host or cells: E. coli, e.g. BL21 (DE3)
Put plainly: PPI-HTRF assay, K-Ras G12V / SOS1 interaction. As to conditions: HTRF, K-Ras G12V; read-out: PPI-HTRF-5 nM (K-Ras G12V IC50). The text has this: (§1) This assay can be also used to assess a selective inhibition or reduction of signaling output of a mutant Ras protein relative to a wildtype, or relative to a different mutant Ras protein. For example, the equilibrium interaction of wildtype Kras or K-Ras mutant (e.g., wildtype or a mutant thereof) with SOS1 (e.g., hSOS1) can be assessed as a proxy or an indication for a subject compound's ability to bind and inhibit Ras protein. HTRF assay detects from (i) a fluorescence resonance energy transfer (FRET) donor (e.g., antiGST-Europium) that is bound to GST-tagged K-Ras mutant to (ii) a FRET acceptor (e.g., anti-6His-XL665) bound to a His-tagged hSOS1.
(§2) The assay buffer can contain ˜5 mM HEPES pH 7.4, ˜150 mM NaCl, ˜1 mM DTT, 0.05% BSA and 0.0025% (v/v) Igepal. A Ras working solution is prepared in an assay buffer containing typically a suitable amount of the protein construct (e.g., GST-tagged K-Ras mutant) and the FRET donor (e.g., antiGST-Eu(K) from Cisbio, France). A SOS1 working solution is prepared in an assay buffer containing suitable amount of the protein construct (e.g., His-hSOS1) and the FRET acceptor (e.g., anti-6His-XL665 from Cisbio, France). A suitable amount of the protein construct will depend on the range of activity or range of IC50 values being detected or under investigation. For detecting IC50 within a range of 500 nM, the protein constructs of the same range of molarity can be utilized.
(§3) A fixed volume of DMSO with or without test compound is transferred into a 384-well plate. Ras working solution is added to all wells of the test plate. SOS1 working solution is added to all wells except for those that are subsequently filled the inhibitor control solution. Upon incubation for about 10 minutes or longer, the fluorescence is measured with a M1000Pro plate reader (Tecan) using HTRF detection (excitation 337 nm, emission 1: 620 nm, emission 2: 665 nm). Compounds are tested in duplicate at different concentrations (for example, 10 μM, 2.5 μM, 0.63 μM, 0.16 μM, 0.04 μM, 0.01 μM test compound). The ratiometric data (i.e., emission 2 divided by emission 1) is used to calculate IC50 values against Ras using GraphPad Prism (GraphPad software). Following this general procedure, samples are tested with or without a subject compound disclosed herein including compounds exemplified in Table 1 to assess their abilities to inhibit a mutant K-Ras relative to another K-Ras (e.g., different mutant or wildtype). Signaling output measured in terms of IC50 values can be obtained, a ratio of IC50 against one mutant relative to another mutant can be calculated. For instance, a selective reduction of K-Ras G12D signaling output can be evidenced by a ratio greater than one. In particular, a selective reduction of K-Ras G12D signaling relative to K-Ras WT signaling is evidenced if the ratio of IC50 (against K-Ras WT) to IC50 (against K-Ras G12D) is greater than 1.

Another assay deals with T2, wildtype K-Ras (Homo sapiens, UniProt P01116).
T2 construct: made in house; host or cells: E. coli, e.g. BL21 (DE3)
T2 sequence (P01116 1-188 isoform P01116-2): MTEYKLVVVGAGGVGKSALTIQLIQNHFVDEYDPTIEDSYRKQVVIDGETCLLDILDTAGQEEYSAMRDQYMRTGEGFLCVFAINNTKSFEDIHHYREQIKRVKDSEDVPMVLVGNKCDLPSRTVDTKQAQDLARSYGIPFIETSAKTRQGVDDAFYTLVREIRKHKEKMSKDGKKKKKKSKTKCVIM
Put plainly: PPI-HTRF assay, wildtype K-Ras / SOS1 interaction. Particulars: HTRF, K-Ras wt; read-out: PPI-HTRF-5 nM (K-Ras wt IC50).
From the text: as §1, §2, §3

A further assay addresses T3, K-Ras G12S (Homo sapiens, UniProt P01116, G12S).
T3 construct: made in house; host or cells: E. coli, e.g. BL21 (DE3)
Put plainly: PPI-HTRF assay, K-Ras G12S / SOS1 interaction. Particulars: read-out: PPI-HTRF-5 nM (K-Ras G12S IC50).
From the text: as §1, §2, §3

Another assay deals with T4, K-Ras G12D (Homo sapiens, UniProt P01116, G12D).
T4 construct: made in house; host or cells: E. coli, e.g. BL21 (DE3)
T4 sequence (P01116 1-188 isoform P01116-2 G12D): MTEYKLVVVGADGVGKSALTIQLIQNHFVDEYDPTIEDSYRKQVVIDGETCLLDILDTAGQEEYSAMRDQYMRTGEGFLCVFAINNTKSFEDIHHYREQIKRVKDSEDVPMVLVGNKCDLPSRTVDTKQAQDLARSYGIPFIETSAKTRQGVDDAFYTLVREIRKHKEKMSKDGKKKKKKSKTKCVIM
Put plainly: PPI-HTRF assay, K-Ras G12D / SOS1 interaction. As to conditions: HTRF, K-Ras G12D; read-out: PPI-HTRF-5 nM (K-Ras G12D IC50).
From the text: as §1, §2, §3

T1 sequence (P01116 1-188 isoform P01116-2 G12V): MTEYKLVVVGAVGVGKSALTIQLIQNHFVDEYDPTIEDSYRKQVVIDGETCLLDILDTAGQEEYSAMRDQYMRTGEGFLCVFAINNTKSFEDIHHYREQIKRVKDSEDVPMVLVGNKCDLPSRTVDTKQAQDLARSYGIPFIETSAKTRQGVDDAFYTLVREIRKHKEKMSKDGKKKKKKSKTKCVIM
T3 sequence (P01116 1-188 isoform P01116-2 G12S): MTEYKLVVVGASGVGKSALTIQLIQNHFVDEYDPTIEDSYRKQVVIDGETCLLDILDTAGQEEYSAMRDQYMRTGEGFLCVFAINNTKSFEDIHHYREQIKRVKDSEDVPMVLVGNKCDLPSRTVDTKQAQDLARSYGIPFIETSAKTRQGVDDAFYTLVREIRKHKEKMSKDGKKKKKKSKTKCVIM

Take `N#Cc1c(N)sc2c(F)ccc(-c3c(Cl)c4c5c(nc(OCC67CCCN6C[C@H](F)C7)nc5c3F)N3CCC(OC(F)F)CC3CO4)c12` (single isomer, unassigned) [compound 118]: the concentration for half-maximal inhibition (IC50) at K-Ras G12V, at wildtype K-Ras, at K-Ras G12S and on K-Ras G12D was below 5 µM in each case.
In the case of `CC(O)C1C[C@H]2CCCN2c2nc(OC[C@@]34CCCN3C[C@H](F)C4)nc3c(F)c(-c4ccc(F)c5sc(N)c(C#N)c45)c(Cl)c(c23)O1` (single isomer, unassigned) [compound 122], the IC50 on K-Ras G12V, on wildtype K-Ras and at K-Ras G12S was below 5 µM each time.
As for `N#Cc1c(N)sc2c(F)ccc(-c3c(Cl)c4c5c(nc(OC[C@@]67CCCN6C[C@H](F)C7)nc5c3F)N3CCC[C@@H]3CC(C(F)F)O4)c12` (single isomer, unassigned) [compound 123], the IC50 on K-Ras G12V, at wildtype K-Ras and on K-Ras G12S was below 5 µM in each case.
Regarding `CC(C)C1NCC12CC[C@H]1COc3c(Cl)c(-c4ccc(F)c5sc(N)c(C#N)c45)c(F)c4nc(OC[C@@]56CCCN5C[C@H](F)C6)nc(c34)N1C2` (single isomer, unassigned) [compound 130], the IC50 at K-Ras G12V, on wildtype K-Ras and at K-Ras G12S was below 5 µM throughout.
Regarding `CC(O)C1C[C@H]2CCCN2c2nc(OC[C@@]34CCCN3C[C@H](F)C4)nc3c(F)c(-c4ccc(F)c5sc(N)c(C#N)c45)c(Cl)c(c23)O1` (single isomer, unassigned) [compound 160], the IC50 at K-Ras G12D is below 5 µM.
`CC(C)C1NCC12CC[C@H]1COc3c(Cl)c(-c4ccc(F)c5sc(N)c(C#N)c45)c(F)c4nc(OC[C@@]56CCCN5C[C@H](F)C6)nc(c34)N1C2` (single isomer, unassigned) [compound 179]: the IC50 at K-Ras G12S is above 5 µM; at K-Ras G12D, below 5 µM.
Take `CCN[C@@H]1CC[C@H]2COc3c(Cl)c(-c4ccc(F)c5sc(N)c(C#N)c45)c(F)c4nc(OC[C@@]56CCCN5C[C@H](F)C6)nc(c34)N2C1` [compound 119, 2-amino-4-((5aS,8R)-3-chloro-8-(ethylamino)-1-fluoro-12-(((2R,7aS)-2-fluorotetrahydro-1H-pyrrolizin-7a(5H)-yl)methoxy)-5,5a,6,7,8,9-hexahydropyrido[2′,1′:3,4][1,4]oxazepino [5,6,7-de]quinazolin-2-yl)-7-fluorobenzo[b]thiophene-3-carbonitrile]: the IC50 on K-Ras G12V, at wildtype K-Ras, at K-Ras G12S and on K-Ras G12D was below 5 µM in each case.
Consider `CN1c2nc(OC[C@@]34CCCN3C[C@H](F)C4)nc3c(F)c(-c4ccc(F)c5sc(N)c(C#N)c45)c(Cl)c(c23)OC2CN(C(=O)C(F)F)CC21` (stereo partly drawn) [compound 147, 2-amino-4-(6-chloro-9-(2,2-difluoroacetyl)-4-fluoro-2-(((2R,7aS)-2-fluorotetrahydro-1H-pyrrolizin-7a(5H)-yl)methoxy)-11-methyl-7a,8,9,10,10a,11-hexahydropyrrolo[3′,4′:2,3][1,4]oxazepino [5,6,7-de]quinazolin-5-yl)-7-fluorobenzo[b]thiophene-3-carbonitrile], for which the IC50 on K-Ras G12V, at wildtype K-Ras, at K-Ras G12S and at K-Ras G12D was below 5 µM throughout.
Consider `COCCN1c2nc(OC[C@@]34CCCN3C[C@H](F)C4)nc3c(F)c(-c4ccc(F)c5sc(N)c(C#N)c45)c(Cl)c(c23)OCC2COCC21` (stereo partly drawn) [compound 163, 2-amino-4-(6-chloro-4-fluoro-2-(((2R,7aS)-2-fluorotetrahydro-1H-pyrrolizin-7a(5H)-yl)methoxy)-12-(2-methoxyethyl)-8a,9,11a,12-tetrahydro-8H,11H-furo[3′,4′:6,7][1,5]oxazocino[4,3,2-de]quinazolin-5-yl)-7-fluorobenzo[b]thiophene-3-carbonitrile], for which the IC50 on K-Ras G12V, at wildtype K-Ras, at K-Ras G12S and at K-Ras G12D was below 5 µM throughout.
With `CN1c2nc(OC[C@@]34CCCN3C[C@H](F)C4)nc3c(F)c(-c4ccc(F)c5sc(N)c(C#N)c45)c(Cl)c(c23)OCC2CCCC21` (stereo partly drawn) [compound 165, 2-amino-4-(6-chloro-4-fluoro-2-(((2R,7aS)-2-fluorotetrahydro-1H-pyrrolizin-7a(5H)-yl)methoxy)-12-methyl-8a,9,10,11,11a,12-hexahydro-8H-cyclopenta[6,7][1,5]oxazocino[4,3,2-de]quinazolin-5-yl)-7-fluorobenzo[b]thiophene-3-carbonitrile], the IC50 on K-Ras G12D was below 5 µM.
`CN1c2nc(OC[C@@]34CCCN3C[C@H](F)C4)nc3c(F)c(-c4ccc(F)c5sc(N)c(C#N)c45)c(Cl)c(c23)OC2COCC21` (stereo partly drawn) [compound 166, 2-amino-4-(6-chloro-4-fluoro-2-(((2R,7aS)-2-fluorotetrahydro-1H-pyrrolizin-7a(5H)-yl)methoxy)-11-methyl-7a,8,10a,11-tetrahydro-10H-furo[3′,4′:2,3][1,4]oxazepino[5,6,7-de]quinazolin-5-yl)-7-fluorobenzo[b]thiophene-3-carbonitrile]: the IC50 on K-Ras G12V, on wildtype K-Ras, at K-Ras G12S and at K-Ras G12D was below 5 µM in each case.
With `N#Cc1c(N)sc2c(F)ccc(-c3c(Cl)c4c5c(nc(OC[C@@]67CCCN6C[C@H](F)C7)nc5c3F)N3C[C@@H](N)C[C@H]3CO4)c12` [compound 191, 2-amino-4-((8aS,10S)-10-amino-6-chloro-4-fluoro-2-(((2R,7aS)-2-fluorotetrahydro-1H-pyrrolizin-7a(5H)-yl)methoxy)-8a,9,10,11-tetrahydro-8H-pyrrolo[2′,1′:3,4][1,4]oxazepino[5,6,7-de]quinazolin-5-yl)-7-fluorobenzo[b]thiophene-3-carbonitrile], the half-maximal inhibitory concentration (IC50) at K-Ras G12V, at wildtype K-Ras, on K-Ras G12S and on K-Ras G12D was below 5 µM throughout.
`N#Cc1c(N)sc2c(F)ccc(-c3c(Cl)c4c5c(nc(OC[C@@]67CCCN6C[C@H](F)C7)nc5c3F)N3CCC(C(F)F)CC3CO4)c12` (stereo partly drawn) [compound 194, 2-amino-4-(6-chloro-10-(difluoromethyl)-4-fluoro-2-(((2R,7aS)-2-fluorotetrahydro-1H-pyrrolizin-7a(5H)-yl)methoxy)-8,8a,9,10,11,12-hexahydropyrido[2′,1′:3,4][1,4]oxazepino [5,6,7-de]quinazolin-5-yl)-7-fluorobenzo[b]thiophene-3-carbonitrile]: the IC50 at K-Ras G12V, on wildtype K-Ras, on K-Ras G12S and on K-Ras G12D was below 5 µM in each case.
For `N#Cc1c(N)sc2c(F)ccc(-c3c(Cl)c4c5c(nc(OC[C@@]67CCCN6C[C@H](F)C7)nc5c3F)N3C[C@H](N)C[C@H]3CO4)c12` [compound 195, 2-amino-4-((8aS,10R)-10-amino-6-chloro-4-fluoro-2-(((2R,7aS)-2-fluorotetrahydro-1H-pyrrolizin-7a(5H)-yl)methoxy)-8a,9,10,11-tetrahydro-8H-pyrrolo[2′,1′:3,4][1,4]oxazepino[5,6,7-de]quinazolin-5-yl)-7-fluorobenzo[b]thiophene-3-carbonitrile], the IC50 on K-Ras G12V, at wildtype K-Ras, on K-Ras G12S and on K-Ras G12D was below 5 µM in each case.

The values are drawn from patent US12059425B2, “Heterocyclic compounds and uses thereof” (Kumquat Biosciences Inc., priority 2022, dated 2024).
